This is an account of results in patent US12293809B2, “Workflow for generating compounds with biological activity against a specific biological target” (INSILICO MEDICINE IP LIMITED, priority 2019, dated 2025).

Converted amounts (≈) assume the structure as drawn. “And” between values parts separate entries of the source, which are not always exact repeats. Equal values may be shown once.

For orientation: Vdss means a proportionality between amount in the body and measured concentration, not a real space. Low readings indicate confinement near the circulation, high ones extensive tissue distribution. The term pKa denotes the negative logarithm of the acid dissociation constant. The IC50 is the concentration at which inhibition is half-maximal.

Data set [1] is described as follows: Mouse PK study, IV administration. It is filed as in vivo. The settings on record: IV 10 mg/kg, M01-M03 individual.
The target of the next data set is T1, eEF-2K (Homo sapiens, UniProt O00418).
T1 construct: purchased Eurofins 50-100KP10
In words: scanMAX Delta Kinase Panel (Eurofins), single concentration. It is filed as biochemical. The settings on record: 10 μM; highest inhibition within the panel. The protocol:
The issue of selectivity is of vital importance for a lead compound to estimate possible off-target effects that can influence the pre-clinical evaluation success. […] DDR1 kinase is mostly expressed in epithelial cells, whereas the expression of DDR2 is generally observed in […]. Even though that the prevention of fibrosis is the primary goal, the selectivity over DDR2 kinase is also a very important consideration.
The experimental procedures were performed by Eurofins. The activity of the molecules against hDDR1 and hDDR2 kinases was assessed using KinaseProfiler^67. The enzyme sample was incubated with 8 mM MOPS buffer (pH=7.0), 0.2 mM EDTA, […] target protein hDDR1 and hDDR2 kinases, 10 mM Magnesium acetate/Manganese chloride, respectively, and [γ-^33P]-ATP. The enzymatic reaction processed in the presence of Mg^2+ cations and ATP at room temperature for 40 minutes and terminated by addition of phosphoric acid. The reaction mixture (10 μL) was spotted onto a P30 filtermat and washed four times using 0.425% phosphoric acid and once with methanol. All the compounds were prepared in 100% DMSO. […] The biological evaluation of selectivity against non-target kinases was performed in Dundee Eurofins, using Scan Max Delta Panel [10 μM ATP] KinaseProfiler^68.

A short description of data set [2]: Microsomal stability (MLM). The protocol: (§1) Cold acetonitrile (ACN) including 100 ng/mL Tolbutamide and 100 ng/mL Labetalol as internal standard (IS) were used for stop solution. 10 μL compound or control working solution/well was added to all plates (T0, T5, T10, T20, T30, T60, NCF60) except matrix blank. Dispense 80 μL/well microsome solution was added to every plate by Apricot, the mixture of microsome solution and compound were incubated at 37° C. for about 10 min. After pre-warming, dispense 10 μL/well NADPH regenerating system was added to every plate by Apricot to start reaction. The solution was then incubated at 37° C. 300 (μL/well) stop solution (cold in 4° C.) was added to terminate the reaction. The sampling plates were shaken for approximately 10 min. Samples were centrifuged at 4000 rpm for 20 min under 4° C. While centrifuging, 8×new 96-well plate were loaded with 300 μL HPLC water, then 100 μL supernatant was transferred and mixed for LC/MS/MS.

The next data set is described as follows: log D 7.4. The settings on record: TFA salt. It is filed as physicochemical. Here is the method:
(§2) Since Compound 2 contains an imidazolidine fragment typically unusual in drug discovery we experimentally assessed key properties for this molecule. […] The inhibition activity of Compounds 1 and 2 towards a small panel of key cytochrome P450 (CYP450) isoforms was also assessed in vitro (Table 2).

The next data set is described as follows: pKa. It is filed as physicochemical. The protocol:
as §2

Data set [3] concerns α-actin (α-SMA) production in LX-2 cells. The experiment in a line: LX-2 fibrosis assay, TGF-β stimulated (Western blot). The settings on record: 14 nM. The format is cell-based, human. The protocol: Collagen α1, α-SMA, CTGF and GAPDH were traced using Western blot analysis.
After 20 h growth in the reduced serum medium, the cells were treated with indicated doses of compounds for 30 minutes.
In general terms: In western blotting, separated proteins are transferred to a membrane and probed.

Data set [4] can be described thus: Microsomal stability (DLM). The settings on record: for Remaining (*NCF = 60 min) / Remaining (T = 60 min): 1 h. The protocol: as §1
Another data set in a line: Kinetic solubility. The settings on record: pH=7.4. It is filed as physicochemical. The protocol: as §2
The target in a further data set is hDDR1 (Homo sapiens, UniProt Q08345). The experiment in a line: Rescreen in another biochemical assay (Thermo Fisher-PR6913A). The settings on record: read-out: IC50 towards DDR1 kinase, rescreen. The protocol:
In the present example, six molecules were generated, selected, and synthesized and were submitted for biological testing (e.g., within 35 days). […] Since the dose-response curves for Compounds 2 and 4 seemed likely inconsistent, additional experiments were performed to confirm the activity of these molecules towards DDR1 kinase (see FIG. 4B). […] Compounds 1 and 2 were also evaluated towards DDR2 kinase.
FIGS. 4A-4B show the structures and dose-response curves for the generated molecules. The six generated compounds were tested in a dose-dependent manner against DDR1 tyrosine kinase.

Chain of hDDR1 (Q08345 19-913): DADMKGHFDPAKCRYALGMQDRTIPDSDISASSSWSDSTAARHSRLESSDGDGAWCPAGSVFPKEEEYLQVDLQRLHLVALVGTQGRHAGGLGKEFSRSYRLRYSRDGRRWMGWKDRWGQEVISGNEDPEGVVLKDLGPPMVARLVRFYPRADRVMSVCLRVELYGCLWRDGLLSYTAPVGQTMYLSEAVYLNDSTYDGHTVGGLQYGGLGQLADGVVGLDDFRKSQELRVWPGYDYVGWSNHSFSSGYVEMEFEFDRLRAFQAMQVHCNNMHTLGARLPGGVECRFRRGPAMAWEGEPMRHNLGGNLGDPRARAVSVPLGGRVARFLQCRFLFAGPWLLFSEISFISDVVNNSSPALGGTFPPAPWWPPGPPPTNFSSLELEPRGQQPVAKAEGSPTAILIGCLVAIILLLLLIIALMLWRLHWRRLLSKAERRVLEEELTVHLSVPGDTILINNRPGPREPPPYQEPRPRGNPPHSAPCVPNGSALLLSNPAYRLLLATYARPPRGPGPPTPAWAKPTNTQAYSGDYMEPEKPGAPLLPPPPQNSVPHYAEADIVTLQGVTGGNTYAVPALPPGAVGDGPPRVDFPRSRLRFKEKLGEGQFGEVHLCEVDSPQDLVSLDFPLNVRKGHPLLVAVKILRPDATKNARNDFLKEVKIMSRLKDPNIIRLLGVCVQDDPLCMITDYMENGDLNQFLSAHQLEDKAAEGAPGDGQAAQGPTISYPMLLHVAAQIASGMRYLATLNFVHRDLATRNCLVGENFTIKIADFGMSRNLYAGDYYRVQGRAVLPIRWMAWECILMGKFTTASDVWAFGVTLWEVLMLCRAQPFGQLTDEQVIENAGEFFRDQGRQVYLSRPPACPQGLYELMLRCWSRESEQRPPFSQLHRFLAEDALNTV

Consider `Cc1ccc2c(Nc3cccc(C(F)(F)F)c3)noc2c1C#Cc1cnc2cccnn12` [Compound 1], for which the Tlast in [1] (c4 Mean) is 24.0 ± — h. Moreover, in data set [1] (c4 Mean ± SD), the AUC0-inf was 6888 ± 359 ng·h/mL, the AUC0-last was 6830 ± 349 ng·h/mL, the AUCExtra worked out at 0.845 ± 0.104% and the AUMCExtra is 5.42 ± 0.663%. Also, in [1] (c4 Mean ± SD), the C0 worked out at 2598 ± 572 ng/mL, the Cl is recorded as 19.1 ± 0.970 mL/min/kg, the MRT0-inf stood at 274 ± 11.6 min and the MRT0-last was 261 ± 11.2 min. Further, in data set [1] (c4 Mean ± SD), the T1/2 was determined as 219 ± 7.38 min and the Vdss came to 5.21 ± 0.349 L/kg. Besides, on eEF-2K, the INH % was found to be 37%.

`O=C(Nc1cccc(C(=O)N2CCN(c3ccnc4[nH]ccc34)C2)c1)c1cccc(C(F)(F)F)c1` [Compound 2]: the “CLint(mic)” value is listed as 91.8 in data set [2] (MLM 0.5); 162.6 in data set [4] (DLM 0.5); 108.2 in data set [4] (HLM 0.5); 80.6 in [4] (rat, microsomes). In addition, the T1/2 in data set [2] (mouse, microsomes) came to 15.1 min; in [4] (dog, microsomes), 8.5 min; in data set [4] (human, microsomes), 12.8 min; in data set [4] (rat, microsomes) it was 17.2 min. Also, the “Remaining (*NCF = 60 min)” value in [2] (mouse, microsomes, 1 h) is reported as 86.0%; in data set [4] (dog, microsomes), 99.9%; in data set [4] (human, microsomes), 88.7%; in [4] (rat, microsomes) it was 88.3%. Further, the “Remaining (T = 60 min)” value in data set [2] (mouse, microsomes, 1 h) came out at 5.3%; in data set [4] (dog, microsomes) it was 0.6%; in data set [4] (human, microsomes) it was 2.8%; in data set [4] (rat, microsomes), 7.1%. Also, the “log D 7.4” value in “log D 7.4” is recorded as 4.07. Besides, the pKa in “pKa” worked out at 6.99. The “inhibition of α-SMA” value in data set [3] came to 15%. Moreover, the kinetic solubility in the data set “Kinetic solubility” was found to be 1.09 µg/mL (≈ 2.27 µM). For the same compound, the IC50 on hDDR1 was 0.037 µM and 0.0371 µM.
